Results: the CheMixHub drug solubility set

Assay: xn = mol fraction of the nth substance listed, in the solute-free solvent

Cc1ncc(C[n+]2csc(CCO)c2C)c(N)n1.O=[N+]([O-])[O-] + O + CC(C)=O
solubility (g/100 g solution)
Conditions	278.15 K	283.15 K	288.15 K	293.15 K	298.15 K	303.15 K	308.15 K	313.15 K
x2 = 0.3	0.0632	0.0724	0.0831	0.0951	0.118	0.138	0.161	0.193
x2 = 0.4	0.169	0.198	0.227	0.252	0.298	0.344	0.393	0.437
x2 = 0.5	0.394	0.441	0.498	0.556	0.639	0.733	0.842	0.951
x2 = 0.6	0.648	0.746	0.87	0.996	1.16	1.37	1.64	2
x2 = 0.7	1.08	1.24	1.45	1.69	1.98	2.3	2.69	3.23
x2 = 0.8	1.55	1.8	2.14	2.53	2.97	3.56	4.14	4.86
x2 = 0.9	1.85	2.17	2.54	3.11	3.62	4.28	5	5.96

CCCCCOC(=O)Nc1nc(=O)n(C2OC(C)C(O)C2O)cc1F (stereo unspecified) + CCOC(C)=O + CCCCCCC
solubility (g/100 g solution)
Conditions	278.15 K	283.15 K	288.15 K	293.15 K	298.15 K	303.15 K	308.15 K	313.15 K	318.15 K	323.15 K
x2 = 0.3	0.0197	0.0268	0.0361	0.0476	0.0629	0.0818	0.106	0.136	0.174	0.22
x2 = 0.4	0.0475	0.0561	0.0765	0.0904	0.106	0.132	0.154	0.184	0.216	0.267
x2 = 0.5	0.0862	0.111	0.141	0.179	0.221	0.274	0.337	0.411	0.502	0.604
x2 = 0.5998	0.131	0.166	0.212	0.286	0.332	0.407	0.518	0.643	0.749	0.931
x2 = 0.7	0.266	0.34	0.455	0.554	0.682	0.849	1.07	1.31	1.63	1.98
x2 = 0.8	0.485	0.609	0.801	0.99	1.27	1.6	2.05	2.49	3.12	3.74
x2 = 0.9001	0.622	0.794	1.08	1.44	1.81	2.46	3.02	4.02	4.87	6.07

COC(=O)C(C)(C)N=NC(C)(C)C(=O)OC + CO + O
Conditions	solubility (g/100 g solution)
252.55 K, x2 = 0.692	1.72
252.85 K, x2 = 0.914	5.48
252.95 K, x2 = 0.628	1.36
253.15 K, x2 = 0.835	4.25
253.35 K, x2 = 0.511	0.455
253.45 K, x2 = 0.578	0.701
254.15 K, x2 = 0.761	2.82
254.75 K, x2 = 0.692	2.04
255.35 K, x2 = 0.628	1.61
255.55 K, x2 = 0.914	7.08
255.95 K, x2 = 0.578	0.875
255.95 K, x2 = 0.835	5.53
256.55 K, x2 = 0.511	0.546
256.65 K, x2 = 0.761	3.73
257.35 K, x2 = 0.692	3.07
257.95 K, x2 = 0.628	2.02
258.55 K, x2 = 0.578	1.31
259.05 K, x2 = 0.511	0.817
259.85 K, x2 = 0.914	9.9
260.15 K, x2 = 0.835	7.93
260.55 K, x2 = 0.761	5.93
261.05 K, x2 = 0.692	4.39
261.65 K, x2 = 0.628	2.76
262.15 K, x2 = 0.578	2.5
262.75 K, x2 = 0.511	1.35
263.35 K, x2 = 0.914	12.7
263.75 K, x2 = 0.835	9.97
263.95 K, x2 = 0.761	6.93
264.35 K, x2 = 0.692	5.15
264.85 K, x2 = 0.628	4.05
265.25 K, x2 = 0.578	3.25
265.75 K, x2 = 0.511	2.24
265.95 K, x2 = 0.914	14.4
266.15 K, x2 = 0.835	11.5
266.35 K, x2 = 0.761	8.33
267.95 K, x2 = 0.511	3.2
268.05 K, x2 = 0.628	5.71
268.05 K, x2 = 0.692	7.96
268.05 K, x2 = 0.761	9.69
268.05 K, x2 = 0.835	12.8
268.05 K, x2 = 0.914	16.6
268.25 K, x2 = 0.578	5.05
273.25 K, x2 = 0.835	20.2
273.35 K, x2 = 0.511	5.31
273.35 K, x2 = 0.578	7.79
273.35 K, x2 = 0.628	9.15
273.35 K, x2 = 0.914	26.6
273.45 K, x2 = 0.692	12.2
273.55 K, x2 = 0.761	17.3
275.55 K, x2 = 0.914	32
275.65 K, x2 = 0.511	6.38
275.65 K, x2 = 0.578	8.78
275.65 K, x2 = 0.835	25.5
275.75 K, x2 = 0.692	16.8
275.75 K, x2 = 0.761	20.5
275.85 K, x2 = 0.628	12.8
278.15 K, x2 = 0.835	32.7
278.15 K, x2 = 0.914	38.9
278.25 K, x2 = 0.761	27.3
278.35 K, x2 = 0.511	7.35
278.35 K, x2 = 0.578	10.2
278.35 K, x2 = 0.628	16
278.35 K, x2 = 0.692	21.6
280.65 K, x2 = 0.914	47.1
280.75 K, x2 = 0.692	27.6
280.75 K, x2 = 0.761	33.4
280.75 K, x2 = 0.835	39.1
280.85 K, x2 = 0.628	20.5
280.95 K, x2 = 0.578	15.1
281.05 K, x2 = 0.511	9.61
283.05 K, x2 = 0.578	21
283.05 K, x2 = 0.835	51.4
283.05 K, x2 = 0.914	55.7
283.15 K, x2 = 0.692	36.3
283.15 K, x2 = 0.761	44.2
283.45 K, x2 = 0.511	12.7
283.45 K, x2 = 0.628	28.1
285.65 K, x2 = 0.835	62.4
285.65 K, x2 = 0.914	66.9
285.75 K, x2 = 0.578	29.5
285.75 K, x2 = 0.628	39
285.75 K, x2 = 0.692	48.6
285.75 K, x2 = 0.761	56.4
285.85 K, x2 = 0.511	19.1
288.15 K, x2 = 0.578	42.6
288.15 K, x2 = 0.628	55.9
288.25 K, x2 = 0.761	71.5
288.25 K, x2 = 0.835	75.3
288.25 K, x2 = 0.914	78.2
288.35 K, x2 = 0.692	65.6
290.65 K, x2 = 0.628	77.7
290.65 K, x2 = 0.914	86.1
290.75 K, x2 = 0.692	81.5
290.75 K, x2 = 0.761	83.9
290.75 K, x2 = 0.835	85.1
293.15 K, x2 = 0.761	91.5
293.15 K, x2 = 0.835	91.5
293.15 K, x2 = 0.914	91.9
293.25 K, x2 = 0.692	91.2
293.35 K, x2 = 0.628	91.1
